In PubChem BioAssay (NCI):
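Cells were grown in 96-well plates and exposed to each compound for 48 hours at five concentrations; endpoints were interpolated linearly between bracketing concentrations, or set to the highest concentration if not reached. GI50: concentration for 50% inhibition of growth. Definition used: TGI = concentration required for complete inhibition of growth.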

How the values were obtained:
Assay in all cases: NCI tumour cell line growth inhibition, 48 h
786-0 renal = test system: 786-0 renal
ACHN renal = test system: ACHN renal
CCRF-CEM leukemia = test system: CCRF-CEM leukemia
DU-145 prostate = test system: DU-145 prostate
HCT-116 colon = test system: HCT-116 colon
HCT-15 colon = test system: HCT-15 colon
HS 578T breast = test system: HS 578T breast
IGROV1 ovarian = test system: IGROV1 ovarian
MALME-3M melanoma = test system: MALME-3M melanoma
MDA-MB-231 breast = test system: MDA-MB-231 breast
MDA-MB-435 = test system: MDA-MB-435
NCI-H23 lung = test system: NCI-H23 lung
NCI/ADR-RES ovarian = test system: NCI/ADR-RES ovarian
OVCAR-5 ovarian = test system: OVCAR-5 ovarian
PC-3 prostate = test system: PC-3 prostate
RXF 393 renal = test system: RXF 393 renal
SF-295 CNS = test system: SF-295 CNS
SF-539 CNS = test system: SF-539 CNS
SK-MEL-28 melanoma = test system: SK-MEL-28 melanoma
SK-MEL-5 melanoma = test system: SK-MEL-5 melanoma
SK-OV-3 ovarian = test system: SK-OV-3 ovarian
SN12C renal = test system: SN12C renal
SNB-75 CNS = test system: SNB-75 CNS
SR leukemia = test system: SR leukemia
SW-620 colon = test system: SW-620 colon
TK-10 renal = test system: TK-10 renal
UACC-62 melanoma = test system: UACC-62 melanoma
UO-31 renal = test system: UO-31 renal
CAKI-1 renal = test system: CAKI-1 renal
COLO 205 colon = test system: COLO 205 colon
EKVX NSCLC = test system: EKVX NSCLC
HCC-2998 colon = test system: HCC-2998 colon
HL-60(TB) leukemia = test system: HL-60(TB) leukemia
HOP-92 NSCLC = test system: HOP-92 NSCLC
HT29 colon = test system: HT29 colon
K-562 leukemia = test system: K-562 leukemia
KM12 colon = test system: KM12 colon
LOX IMVI melanoma = test system: LOX IMVI melanoma
M14 melanoma = test system: M14 melanoma
MCF7 breast = test system: MCF7 breast
MOLT-4 leukemia = test system: MOLT-4 leukemia
NCI-H226 lung = test system: NCI-H226 lung
NCI-H460 lung = test system: NCI-H460 lung
OVCAR-4 ovarian = test system: OVCAR-4 ovarian
OVCAR-8 ovarian = test system: OVCAR-8 ovarian
RPMI-8226 leukemia = test system: RPMI-8226 leukemia
SF-268 CNS = test system: SF-268 CNS
SNB-19 CNS = test system: SNB-19 CNS
T-47D breast = test system: T-47D breast
U251 CNS = test system: U251 CNS
UACC-257 melanoma = test system: UACC-257 melanoma

With `c1ccc(-c2n(Cc3ccc4ccccc4c3)cc[n+]2Cc2ccc3ccccc3c2)cc1` the GI50 (786-0 renal) was 1.46 µM, the TGI (786-0 renal) was 3.02 µM and the GI50 (ACHN renal) was 1.77 µM. It also gave a TGI (ACHN renal) of 3.43 µM, a GI50 (CCRF-CEM leukemia) of 1.56 µM and a TGI (CCRF-CEM leukemia) of 4.06 µM. It also gave a GI50 (DU-145 prostate) of 1.38 µM, a TGI (DU-145 prostate) of 2.73 µM and a GI50 (HCT-116 colon) of 0.665 µM. It also gave a TGI (HCT-116 colon) of 2.14 µM, a GI50 (HCT-15 colon) of 1.79 µM and a TGI (HCT-15 colon) of 3.46 µM. For the same molecule, the GI50 (HS 578T breast) was 1.61 µM, the TGI (HS 578T breast) was 4.08 µM and the GI50 (IGROV1 ovarian) was 0.651 µM. It also gave a TGI (IGROV1 ovarian) of 2.13 µM, a GI50 (MALME-3M melanoma) of 1.14 µM and a TGI (MALME-3M melanoma) of 2.56 µM. The GI50 (MDA-MB-231 breast) was 1.07 µM, the TGI (MDA-MB-231 breast) was 2.35 µM and the GI50 (MDA-MB-435) was 1.02 µM. The TGI (MDA-MB-435) was 2.24 µM, the GI50 (NCI-H23 lung) was 0.775 µM and the TGI (NCI-H23 lung) was 2.35 µM. For the same molecule, the GI50 (NCI/ADR-RES ovarian) was 13.9 µM, the TGI (NCI/ADR-RES ovarian) was 35.4 µM and the GI50 (OVCAR-5 ovarian) was 1.36 µM. The TGI (OVCAR-5 ovarian) was 2.75 µM, the GI50 (PC-3 prostate) was 1.22 µM and the TGI (PC-3 prostate) was 2.68 µM. For the same molecule, the GI50 (RXF 393 renal) was 1.12 µM, the TGI (RXF 393 renal) was 2.44 µM and the GI50 (SF-295 CNS) was 1.26 µM. It also gave a TGI (SF-295 CNS) of 2.55 µM, a GI50 (SF-539 CNS) of 1.45 µM and a TGI (SF-539 CNS) of 2.81 µM. It also gave a GI50 (SK-MEL-28 melanoma) of 1.14 µM, a TGI (SK-MEL-28 melanoma) of 2.53 µM and a GI50 (SK-MEL-5 melanoma) of 0.481 µM. It also gave a TGI (SK-MEL-5 melanoma) of 1.69 µM, a GI50 (SK-OV-3 ovarian) of 1.49 µM and a TGI (SK-OV-3 ovarian) of 2.89 µM. The GI50 (SN12C renal) was 1.26 µM, the TGI (SN12C renal) was 2.64 µM and the GI50 (SNB-75 CNS) was 1.16 µM. For the same molecule, the TGI (SNB-75 CNS) was 2.58 µM, the GI50 (SR leukemia) was 0.972 µM and the TGI (SR leukemia) was 3.4 µM. For the same molecule, the GI50 (SW-620 colon) was 1.08 µM, the TGI (SW-620 colon) was 2.48 µM and the GI50 (TK-10 renal) was 1.34 µM. The TGI (TK-10 renal) was 2.83 µM, the GI50 (UACC-62 melanoma) was 0.447 µM and the TGI (UACC-62 melanoma) was 1.73 µM. For the same molecule, the GI50 (UO-31 renal) was 1.47 µM and the TGI (UO-31 renal) was 2.87 µM.

With `CSC1=C(C(=O)Nc2ccc(C)cc2)C(N)=NC1=O` the TGI (786-0 renal) was > 100 µM, the TGI (ACHN renal) was > 100 µM and the TGI (CAKI-1 renal) was > 100 µM. The TGI (CCRF-CEM leukemia) was > 100 µM, the TGI (COLO 205 colon) was > 100 µM and the TGI (DU-145 prostate) was > 100 µM. For the same molecule, the TGI (EKVX NSCLC) was > 100 µM, the TGI (HCC-2998 colon) was > 100 µM and the TGI (HCT-116 colon) was > 100 µM. For the same molecule, the TGI (HCT-15 colon) was > 100 µM, the TGI (HL-60(TB) leukemia) was > 100 µM and the TGI (HOP-92 NSCLC) was > 100 µM. The TGI (HS 578T breast) was > 100 µM, the TGI (HT29 colon) was > 100 µM and the TGI (IGROV1 ovarian) was > 100 µM. The TGI (K-562 leukemia) was > 100 µM, the TGI (KM12 colon) was > 100 µM and the TGI (LOX IMVI melanoma) was > 100 µM. The TGI (M14 melanoma) was > 100 µM, the TGI (MCF7 breast) was > 100 µM and the TGI (MDA-MB-231 breast) was > 100 µM. The TGI (MDA-MB-435) was > 100 µM, the TGI (MOLT-4 leukemia) was > 100 µM and the TGI (NCI-H226 lung) was > 100 µM. For the same molecule, the TGI (NCI-H23 lung) was > 100 µM, the TGI (NCI-H460 lung) was > 100 µM and the TGI (NCI/ADR-RES ovarian) was > 100 µM. For the same molecule, the TGI (OVCAR-4 ovarian) was > 100 µM, the TGI (OVCAR-8 ovarian) was > 100 µM and the TGI (RPMI-8226 leukemia) was > 100 µM. The TGI (RXF 393 renal) was > 100 µM, the TGI (SF-268 CNS) was > 100 µM and the TGI (SF-295 CNS) was > 100 µM. For the same molecule, the TGI (SF-539 CNS) was > 100 µM, the TGI (SK-MEL-28 melanoma) was > 100 µM and the TGI (SK-MEL-5 melanoma) was > 100 µM. For the same molecule, the TGI (SK-OV-3 ovarian) was > 100 µM, the TGI (SNB-19 CNS) was > 100 µM and the TGI (SNB-75 CNS) was > 100 µM. The TGI (SR leukemia) was > 100 µM, the TGI (SW-620 colon) was > 100 µM and the TGI (T-47D breast) was > 100 µM. The TGI (TK-10 renal) was > 100 µM, the TGI (U251 CNS) was > 100 µM and the TGI (UACC-257 melanoma) was > 100 µM. For the same molecule, the TGI (UACC-62 melanoma) was > 100 µM and the TGI (UO-31 renal) was > 100 µM.
